How the values were obtained:
[1] = molecular target: T1, Phenylethanolamine N-methyltransferase (Bos taurus, UniProt P10938); experiment: (§1) Inhibitory activity against phenylethanolamine N-methyl-transferase
T1 sequence (P10938 whole entry): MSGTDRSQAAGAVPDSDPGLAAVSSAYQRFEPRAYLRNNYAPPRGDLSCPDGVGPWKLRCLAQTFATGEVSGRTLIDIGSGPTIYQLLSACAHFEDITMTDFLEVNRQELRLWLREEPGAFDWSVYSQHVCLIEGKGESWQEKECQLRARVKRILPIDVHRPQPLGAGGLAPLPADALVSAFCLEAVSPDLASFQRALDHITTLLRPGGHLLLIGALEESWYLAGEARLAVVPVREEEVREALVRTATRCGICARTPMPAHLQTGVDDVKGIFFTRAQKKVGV

[2] = substrate: NCC(O)/C1=C/CC/C=C\CC1; experiment: (§2) Substrate activity against phenylethanolamine N-methyl-transferase was tested
[3] = substrate: NCC(O)C1CCCCCCC1; experiment: as §2
[4] = substrate: NCC(O)C1=C/CCCC/C=C\1; experiment: as §2
[5] = substrate: NCC(O)C1CC=CCC1; experiment: as §2
[6] = substrate: NCC(O)C1CCCCC1; experiment: as §2
[7] = substrate: NCC(O)/C1=C/CCCCCC1; experiment: as §2
[8] = substrate: NCC(O)C1=C/C=C\C=C/C=C\1; experiment: as §2
[9] = compound: NC[C@@H](O)c1ccccc1; experiment: as §1

Molecule: NCC(O)/C1=C/CC/C=C\CC1 (stereo unspecified)
- IC50 [1]: 89 µM

Molecule: NCC(O)C1CCCCCC1 (stereo unspecified)
- IC50 [1]: 8 µM

Molecule: CCCCCCC(C)(C#N)O[Si](C)(C)C (stereo unspecified)
- IC50 [1]: 664 µM

Molecule: CCCCCCC=O [HEPTANAL]
- IC50 [1]: 109 µM

Molecule: CCC(C=O)CC
- IC50 [1]: 545 µM

Molecule: C[Si](C)(C)OC1(C#N)CCCCCC1
- IC50 [1]: 510 µM

Molecule: C[Si](C)(C)OC1(C#N)CCCCCCC1
- IC50 [1]: 72 µM

Molecule: O=CC1CCCCCCCCCC1 [CYCLOUNDECANE CARBALDEHYDE]
- IC50 [1]: 9 µM

Molecule: C[Si](C)(C)OC1(C#N)CCCCC1
- IC50 [1]: > 1000 µM

Molecule: NCC1(O)CCCCCCCC1
- IC50 [1]: 17 µM

Molecule: NCC1(O)CCCCCCC1
- IC50 [1]: 72 µM

Molecule: CCCCCCCC(C#N)O[Si](C)(C)C (stereo unspecified)
- IC50 [1]: 216 µM

Molecule: NCC(O)C1CCCCCCCC1 (stereo unspecified)
- IC50 [1]: 6 µM

Molecule: CCC(CC)C(O)CN (stereo unspecified)
- IC50 [1]: 545 µM

Molecule: NCC1(O)CCCCCCCCCC1
- IC50 [1]: 8 µM

Molecule: NCC(O)C1CC=CCC1 (stereo unspecified)
- IC50 [1]: 52 µM

Molecule: NCC1(O)CCCCCC1
- IC50 [1]: 510 µM

Molecule: CCCCC(C#N)O[Si](C)(C)C (stereo unspecified)
- IC50 [1]: 345 µM

Molecule: CCCCC=O [PENTANAL]
- IC50 [1]: 345 µM

Molecule: CCCCCCCC(O)CN (stereo unspecified)
- IC50 [1]: 216 µM

Molecule: NCC(O)C1=C/C=C\C=C/C=C\1 (stereo unspecified)
- IC50 [1]: 760 µM

Molecule: NCC(O)C1CCCCCCC1 (stereo unspecified)
- IC50 [1]: 7 µM

Molecule: CCCCCC(C#N)O[Si](C)(C)C (stereo unspecified)
- IC50 [1]: 314 µM

Molecule: CCCCCC(C)=O
- IC50 [1]: 669 µM

Molecule: NCC(O)C1CCCC1 (stereo unspecified)
- IC50 [1]: 446 µM

Molecule: C[Si](C)(C)OC(C#N)C1CCC1 (stereo unspecified)
- IC50 [1]: > 1000 µM

Molecule: CCCCCCC(C#N)O[Si](C)(C)C (stereo unspecified)
- IC50 [1]: 109 µM

Molecule: CCCCC(O)CN (stereo unspecified)
- IC50 [1]: 345 µM

Molecule: NCC(O)/C1=C/CCCCCC1 (stereo unspecified)
- IC50 [1]: 38 µM

Molecule: O=CC1CCCCCCCC1 [CYCLONONANECARBALDEHYDE]
- IC50 [1]: 6 µM

Molecule: CCC(CC)C(C#N)O[Si](C)(C)C (stereo unspecified)
- IC50 [1]: 545 µM

Molecule: CC(C)CC(O)CN (stereo unspecified)
- IC50 [1]: 1000 µM

Molecule: CCC(C)C(C)C=O (stereo unspecified)
- IC50 [1]: 403 µM

Molecule: NCC1(O)CCCC1
- IC50 [1]: > 1000 µM

Molecule: C[Si](C)(C)OC1(C#N)CCCCCCCC1
- IC50 [1]: 17 µM

Molecule: C[Si](C)(C)OC(C#N)C1CCCCCCCC1 (stereo unspecified)
- IC50 [1]: 6 µM

Molecule: CCCCCCC(C)(O)CN (stereo unspecified)
- IC50 [1]: 664 µM

Molecule: CC(C)CC(C#N)O[Si](C)(C)C (stereo unspecified)
- IC50 [1]: 1000 µM

Molecule: O=C1CCCCCCCC1 [CYCLONONANONE]
- IC50 [1]: 17 µM

Molecule: O=C1CCCCCCC1 [CYCLOOCTANONE]
- IC50 [1]: 72 µM

Molecule: C[Si](C)(C)OC(C#N)C1CCCCCC1 (stereo unspecified)
- IC50 [1]: 8 µM

Molecule: CCCCCC(C)(C#N)O[Si](C)(C)C (stereo unspecified)
- IC50 [1]: 669 µM

Molecule: CCCCCC(C)(O)CN (stereo unspecified)
- IC50 [1]: 669 µM

Molecule: CCCCCC(O)CN (stereo unspecified)
- IC50 [1]: 314 µM

Molecule: O=CC1CCC1 [CYCLOBUTANE CARBALDEHYDE]
- IC50 [1]: > 1000 µM

Molecule: NCC1(O)CCCCC1
- IC50 [1]: > 1000 µM

Molecule: NCC(O)C1=C/CCCC/C=C\1 (stereo unspecified)
- IC50 [1]: 57 µM

Molecule: O=C1CCCC1 [CYCLOPENTANONE]
- IC50 [1]: > 1000 µM

Molecule: O=CC12CC3CC(CC(C3)C1)C2
- IC50 [1]: 195 µM

Molecule: NCC(O)C1CCCCC1 (stereo unspecified)
- IC50 [1]: 14 µM

Molecule: C[Si](C)(C)OC(C#N)C12CC3CC(CC(C3)C1)C2 (stereo unspecified)
- IC50 [1]: 195 µM

Molecule: CCCCCCC(C)=O
- IC50 [1]: 664 µM

Molecule: O=CC1CCCCCC1 [CYCLOHEPTANE CARBALDEHYDE]
- IC50 [1]: 8 µM

Molecule: O=CC1CCCC1 [CYCLOPENTANECARBALDEHYDE]
- IC50 [1]: 446 µM

Molecule: O=C1CCCCC1 [CYCLOHEXANONE]
- IC50 [1]: > 1000 µM

Molecule: CCCCCC=O [HEXANAL]
- IC50 [1]: 314 µM

Molecule: CCC(C)C(C)C(O)CN (stereo unspecified)
- IC50 [1]: 403 µM

Molecule: C[Si](C)(C)OC(C#N)C1CCCCCCCCCC1 (stereo unspecified)
- IC50 [1]: 9 µM

Molecule: C[Si](C)(C)OC1(C#N)CCCC1
- IC50 [1]: > 1000 µM

Molecule: CCC(C)C(C)C(C#N)O[Si](C)(C)C (stereo unspecified)
- IC50 [1]: 403 µM

Molecule: CCCCCCC(O)CN (stereo unspecified)
- IC50 [1]: 109 µM

Molecule: CCCCCCCC=O [OCTANAL]
- IC50 [1]: 216 µM

Molecule: NCC(O)C1CCCCCCCCCC1 (stereo unspecified)
- IC50 [1]: 9 µM

Molecule: CC(C)CC=O
- IC50 [1]: 1000 µM

Molecule: NCC(O)C1CCC1 (stereo unspecified)
- IC50 [1]: > 1000 µM

Molecule: C[Si](C)(C)OC(C#N)C1CCCC1 (stereo unspecified)
- IC50 [1]: 446 µM

Molecule: O=C1CCCCCC1 [CYCLOHEPTANONE]
- IC50 [1]: 510 µM

Molecule: NCC(O)C12CC3CC(CC(C3)C1)C2 (stereo unspecified)
- IC50 [1]: 195 µM

B1: Phenylethanolamine N-methyltransferase (Bos taurus), P10938 (protein)
chain: MSGTDRSQAAGAVPDSDPGLAAVSSAYQRFEPRAYLRNNYAPPRGDLSCPDGVGPWKLRCLAQTFATGEVSGRTLIDIGSGPTIYQLLSACAHFEDITMTDFLEVNRQELRLWLREEPGAFDWSVYSQHVCLIEGKGESWQEKECQLRARVKRILPIDVHRPQPLGAGGLAPLPADALVSAFCLEAVSPDLASFQRALDHITTLLRPGGHLLLIGALEESWYLAGEARLAVVPVREEEVREALVRTATRCGICARTPMPAHLQTGVDDVKGIFFTRAQKKVGV
- Km [2]: 155 µM
- Km [3]: 26 µM
- Km [4]: 128 µM
- Km [5]: 57 µM
- Km [6]: 40 µM
- Km [7]: 110 µM
- Km [8]: 430 µM
- Km [9]: 136 µM

Source: ChEMBL document CHEMBL1121874, “Importance of the aromatic ring in adrenergic amines. 5. Nonaromatic analogues of phenylethanolamine as inhibitors of phenylethanolamine N-methyltransferase: role of hydrophobic and steric interactions” (J Med Chem, 1981)
